# Results taken from patent US20060281071A1, “Stearoyl-CoA desaturase assay” (priority 2005, published 2006).
# Tests used:
# [1] = biological target: T1, mSCD3 (Mus musculus, UniProt Q99PL7, V119A); assay: Conversion of saturated fatty acids to Δ9 monounsaturated fatty acids in ole1 yeast L8-14C expressing mSCD3 (GLC); format: cell-based; parameters: Cloning of the full-length human and mouse SCD cDNAs: The full coding region of human SCDs; expressed in transfected cells; host or cells: Saccharomyces cerevisiae L8-14C (ole1 disruptant), vector p426GPD; details: for conversion of exogenous saturated fatty acid to Δ9 monounsaturated fatty acid: exogenous fatty acid 0.2 mM, 1% tergitol NP-40, yeast cultured 2 days (FIG. 2)
# T1 sequence (Q99PL7 1-359 V119A): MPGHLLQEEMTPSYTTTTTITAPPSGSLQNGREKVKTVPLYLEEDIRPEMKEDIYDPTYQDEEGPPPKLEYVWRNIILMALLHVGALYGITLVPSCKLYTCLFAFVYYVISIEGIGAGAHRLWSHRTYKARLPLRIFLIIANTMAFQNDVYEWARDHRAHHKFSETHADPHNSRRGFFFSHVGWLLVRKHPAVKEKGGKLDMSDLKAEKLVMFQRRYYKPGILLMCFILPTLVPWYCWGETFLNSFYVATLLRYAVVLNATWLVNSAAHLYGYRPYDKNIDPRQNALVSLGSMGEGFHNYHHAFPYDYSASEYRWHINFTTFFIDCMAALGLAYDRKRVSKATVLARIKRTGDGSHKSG
# [2] = biological target: T1, mSCD3; assay: Δ9-desaturase activity in microsomes of Hela cells over-expressing mSCD3; format: biochemical; parameters: Cloning of the full-length human and mouse SCD cDNAs: The full coding region of human SCDs; expressed in transfected cells; details: Hela microsomes 100 μg, 14C-acyl-CoA, NADH (FIG. 3)
Structure (SMILES),conversion of exogenous saturated fatty acid to Δ9 monounsaturated fatty acid [1],further results
"CCCCCCCCCCCCC(=O)O [13:0, tridecanoic acid]",32%,
"CCCCCCCCCCCCCC(=O)O [14:0, myristic acid]",more than 50%,
"CCCCCCCCCCCCCCCC(=O)SCCNC(=O)CCNC(=O)[C@H](O)C(C)(C)COP(=O)(O)OP(=O)(O)OC[C@H]1O[C@@H](n2cnc3c(N)ncnc32)[C@H](O)[C@@H]1OP(=O)(O)O [16:0-CoA, palmitoyl-CoA]",,Δ9-desaturase activity towards 16:0-CoA relative to 18:0-CoA [2]: 16 fold
CCCCCCCCCCCCCCCC(=O)O [16:0],,"% conversion of fatty acid to Δ9 monounsaturated fatty acid ([1]; endogenous fatty acid, L8-14C transformant, YPD lacking unsaturated fatty acids, 3 days): 49%"
"CCCCCCCCCCCCCCCCC(=O)O [17:0, heptadecanoic acid]",undetectable,
"CCCCCCCCCCCCCCCCCCCC(=O)O [C20:0, eicosanoic acid]",None of Δ9-desaturase was able to utilize,
